ChEMBL document CHEMBL1914332, “Marine diterpene glycosides” (Bioorg Med Chem, 2011)

System: MCF7
Assay: Antimitotic activity in human MCF7 cells assessed as mitotic arrest after 16 to 20 hrs by ELISA method
Type: functional, cell-based

IC50	Structure (SMILES)
50 nM	CO[C@]12C=C[C@](C)(O1)[C@@H](OC(=O)/C=C/c1cn(C)cn1)C[C@H]1C(C)=CC[C@H](C(C)C)[C@H]1/C=C\2CO[C@@H]1OC[C@@H](O)[C@@H](OC(C)=O)[C@@H]1O [ISOELEUTHEROBIN A]
80 nM	CC(=O)O[C@@H]1[C@H](OC/C2=C/[C@@H]3[C@@H](C(C)C)CC=C(C)[C@@H]3C[C@H](OC(=O)/C=C/c3cn(C)cn3)[C@]3(C)C=C[C@@]2(OCC(C)(C)CO)O3)OC[C@@H](O)[C@H]1O
200 nM	CO[C@]12CC[C@](C)(O1)[C@@H](OC(=O)/C=C/c1cn(C)cn1)C[C@@H]1[C@H](/C=C\2CO[C@@H]2OC[C@@H](O)[C@@H](O)[C@@H]2OC(C)=O)[C@@H](C(C)C)CC[C@@H]1C [TETRAHYDROELEUTHEROBIN]
300 nM	CO[C@]12C=C[C@](C)(O1)[C@@H](OC(=O)/C=C/c1cn(C)cn1)C[C@@H]1[C@H](/C=C\2CO[C@@H]2OC[C@@H](O)[C@@H](O)[C@@H]2OC(C)=O)[C@@H](C(C)C)C[C@H]2O[C@@]12C
30 nM	CO[C@]12C=C[C@](C)(O1)[C@@H](OC(=O)/C=C/c1cn(C)cn1)C[C@@H]1[C@H](/C=C\2CO[C@@H]2OC[C@@H](O)[C@@H](O)[C@@H]2OC(C)=O)[C@@H](C(C)C)C[C@@H]2O[C@@]21C
20000 nM	CO[C@]12C=C[C@](C)(O1)[C@@H](OC(=O)/C=C/c1cn(C)cn1)C[C@@H]1[C@H](/C=C\2CO[C@@H]2OC[C@@H](O)[C@@H](O)[C@@H]2OC(C)=O)[C@@H](C(C)C)C=C[C@@]1(C)O [CARIBAEOSIDE]
20 nM	CC(=O)O[C@@H]1[C@H](OC/C2=C/[C@@H]3[C@@H](C(C)C)CC=C(C)[C@@H]3C[C@H](OC(=O)/C=C/c3cn(C)cn3)[C@]3(C)C=C[C@@]2(OCCO)O3)OC[C@@H](O)[C@H]1O
20000 nM	CO[C@]12C=C[C@](C)(O1)[C@@H](OC(=O)CCc1cn(C)cn1)C[C@H]1C(C)=CC[C@H](C(C)C)[C@H]1/C=C\2CO[C@@H]1OC[C@@H](O)[C@@H](O)[C@@H]1OC(C)=O

Structure (SMILES)	IC50
CO[C@]12CC[C@](C)(O1)[C@@H](OC(=O)CCc1cn(C)cn1)C[C@@H]1[C@H](/C=C\2CO[C@@H]2OC[C@@H](O)[C@@H](O)[C@@H]2OC(C)=O)[C@@H](C(C)C)CC[C@@H]1C	> 10000 nM
CCO[C@]12C=C[C@](C)(O1)[C@@H](OC(=O)/C=C/c1cn(C)cn1)C[C@H]1C(CO)=CC[C@H](C(C)C)[C@H]1/C=C\2CO[C@@H]1OC[C@@H](O)[C@@H](O)[C@@H]1OC(C)=O	20 nM
CC(=O)O[C@@H]1[C@H](OC/C2=C/[C@@H]3[C@@H](C(C)C)CC=C(C)[C@@H]3C[C@H](OC(=O)/C=C/c3cn(C)cn3)[C@]3(C)C=C[C@@]2(O)O3)OC[C@@H](O)[C@H]1O [DESMETHYLELEUTHEROBIN]	20 nM
CO[C@]12C=C[C@](C)(O1)[C@@H](OC(=O)/C=C/c1cn(C)cn1)C[C@H]1C(C)=CC[C@H](C(C)C)[C@H]1/C=C\2CO[C@@H]1OC[C@@H](O)[C@@H](O)[C@@H]1OC(C)=O [ELEUTHEROBIN]	100 nM
